Here are results for 19 compounds from patent publication US11655235B2, “Pyrrolidine and piperidine compounds” (YUHAN CORPORATION, priority 2019, dated 2023).

Molecules are shown by their SMILES.

Assay [1] addresses T1, Recombinant human FAP (Homo sapiens, UniProt Q12884).
T1 construct: purchased R&D systems
T1 sequence (Q12884 1-760): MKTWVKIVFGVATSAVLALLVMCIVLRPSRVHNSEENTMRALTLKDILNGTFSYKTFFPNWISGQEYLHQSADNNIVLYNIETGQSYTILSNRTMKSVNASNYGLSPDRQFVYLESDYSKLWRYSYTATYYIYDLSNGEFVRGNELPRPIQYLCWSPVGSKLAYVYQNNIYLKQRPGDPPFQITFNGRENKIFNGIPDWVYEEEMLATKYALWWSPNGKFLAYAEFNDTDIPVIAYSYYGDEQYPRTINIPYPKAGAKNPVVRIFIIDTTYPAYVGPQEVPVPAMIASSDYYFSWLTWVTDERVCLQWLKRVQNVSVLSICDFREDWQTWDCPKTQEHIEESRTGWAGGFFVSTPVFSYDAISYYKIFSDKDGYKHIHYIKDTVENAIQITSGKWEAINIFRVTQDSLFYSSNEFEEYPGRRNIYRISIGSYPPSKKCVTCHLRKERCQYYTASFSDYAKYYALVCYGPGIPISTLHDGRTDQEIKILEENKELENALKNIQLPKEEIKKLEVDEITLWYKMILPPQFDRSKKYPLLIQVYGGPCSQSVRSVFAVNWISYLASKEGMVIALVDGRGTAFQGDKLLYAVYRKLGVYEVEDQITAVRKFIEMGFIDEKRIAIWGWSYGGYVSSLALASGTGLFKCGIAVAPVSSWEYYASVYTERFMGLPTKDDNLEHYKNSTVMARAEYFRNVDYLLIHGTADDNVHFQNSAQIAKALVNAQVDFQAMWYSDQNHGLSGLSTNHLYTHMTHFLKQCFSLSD
Briefly: FAP inhibition, fluorogenic substrate Z-Gly-Pro-AMC. In kind it is biochemical. Conditions: for inhibition at 1 µM: read-out: hFAP inhibition % at 1 μM. As to the method:
The compounds according to the present technology were evaluated in terms of the inhibitory effect on the activity of dipeptidyl peptidases including FAP by using a substrate producing fluorescent substances upon enzymatic decomposition. The test was conducted at 25° C. to get a final reaction volume of 100 μL in a 96 black well plate. […] Briefly, the test compounds were dissolved in dimethyl sulfoxide (DMSO) at a concentration of 20 mM and then subjected to serial dilution, thereby creating an 8 point curve. As for the control group, a 6 point curve created by serial dilution of Talabostat in the same buffer solution was used. Fluorescence intensity was measured using a microplate reader (Flexstation3, Molecular Devices) under the wavelength condition exciting at 380 nm and reading the emission at 460 nm. The inhibitory effect of the test compounds was measured as a decrease (%) in the signal rate as compared to the control group without any inhibitor. Data was fixed to a logistic model with four variables and IC50 value was calculated using GraphPad Prism program. Recombinant human FAP (R&D systems) was diluted with 50 mM tris (pH 7.5) buffer comprising 1 M of sodium chloride and 1 mg/ml of bovine serum albumin (BSA) to be 10 ng per final reaction. The test compounds were subjected to serial dilution in a buffer under the condition containing up to 0.1% of DMSO. Z-Gly-Pro-AMC (Bachem) was used as a substrate. By dissolving in DMSO and then diluting in the same buffer, the substrate was added to be […] per final reaction.

Assay [2] addresses DPP4 (Homo sapiens, UniProt P27487). Kind of assay: DPP4 inhibition, fluorogenic substrate H-Gly-Pro-AMC. On the set-up: purchased R&D Systems. Conditions: for inhibition at 1 µM: read-out: hDPP4 inhibition % at 1 μM. In kind it is biochemical. As to the method:
The compounds according to the present technology were evaluated in terms of the inhibitory effect on the activity of dipeptidyl peptidases including FAP by using a substrate producing fluorescent substances upon enzymatic decomposition. The test was conducted at 25° C. to get a final reaction volume of 100 μL in a 96 black well plate. […] Briefly, the test compounds were dissolved in dimethyl sulfoxide (DMSO) at a concentration of 20 mM and then subjected to serial dilution, thereby creating an 8 point curve. As for the control group, a 6 point curve created by serial dilution of Talabostat in the same buffer solution was used. Fluorescence intensity was measured using a microplate reader (Flexstation3, Molecular Devices) under the wavelength condition exciting at 380 nm and reading the emission at 460 nm. The inhibitory effect of the test compounds was measured as a decrease (%) in the signal rate as compared to the control group without any inhibitor. Data was fixed to a logistic model with four variables and IC50 value was calculated using GraphPad Prism program. As for recombinant human DPP4 (R&D Systems), 25 mM tris (pH 8.0) buffer as a buffer solution and H-Gly-Pro-AMC (Bachem) as a substrate were used. As for recombinant human DPP7 (R&D Systems), 25 mM MES (pH 6.0) buffer as a buffer solution and Lys-Pro-AMC (Bachem) as a substrate were used. As for recombinant human DPP8 (PBS Bioscience), as a buffer solution, a 10 mM tris (pH 7.4) buffer comprising 10 mM of magnesium chloride and 0.05% of Tween 20, and Z-Ala-Pro-AMC (BPS Bioscience) as a substrate were used. As for recombinant human DPP9 (R&D Systems), a 25 mM tris (pH 8.0) buffer as a buffer solution and H-Gly-Pro-AMC (Bachem) as a substrate were used. As for recombinant human PREP (R&D System), as a buffer solution, a 25 mM tris (pH 7.5) buffer comprising 250 mM sodium chloride and 2.5 mM DTT (Dithiolthreitol), and Z-Gly-Pro-AMC (Bachem) as a substrate were used. The evaluation was made by using 10 ng of DPP4, PDD7, and PREP, 20 ng of DPP8, and 50 ng of DPP9 based on the final reaction. In the evaluation of DPP4, the test compounds were subjected to serial dilution in a buffer under the condition containing up to 0.1% of DMSO. In the evaluation of DPP7, DPP8, DPP9, and PREP, the test compounds were subjected to serial dilution in each buffer under the condition containing up to 0.5% of DMSO.

Where [3] appears, read: recombinant human FAP, substrate Z-Gly-Pro-AMC.
The mark [4] stands for this setting: 25° C., Z-Gly-Pro-AMC substrate.

Chain of DPP4 (P27487 whole entry): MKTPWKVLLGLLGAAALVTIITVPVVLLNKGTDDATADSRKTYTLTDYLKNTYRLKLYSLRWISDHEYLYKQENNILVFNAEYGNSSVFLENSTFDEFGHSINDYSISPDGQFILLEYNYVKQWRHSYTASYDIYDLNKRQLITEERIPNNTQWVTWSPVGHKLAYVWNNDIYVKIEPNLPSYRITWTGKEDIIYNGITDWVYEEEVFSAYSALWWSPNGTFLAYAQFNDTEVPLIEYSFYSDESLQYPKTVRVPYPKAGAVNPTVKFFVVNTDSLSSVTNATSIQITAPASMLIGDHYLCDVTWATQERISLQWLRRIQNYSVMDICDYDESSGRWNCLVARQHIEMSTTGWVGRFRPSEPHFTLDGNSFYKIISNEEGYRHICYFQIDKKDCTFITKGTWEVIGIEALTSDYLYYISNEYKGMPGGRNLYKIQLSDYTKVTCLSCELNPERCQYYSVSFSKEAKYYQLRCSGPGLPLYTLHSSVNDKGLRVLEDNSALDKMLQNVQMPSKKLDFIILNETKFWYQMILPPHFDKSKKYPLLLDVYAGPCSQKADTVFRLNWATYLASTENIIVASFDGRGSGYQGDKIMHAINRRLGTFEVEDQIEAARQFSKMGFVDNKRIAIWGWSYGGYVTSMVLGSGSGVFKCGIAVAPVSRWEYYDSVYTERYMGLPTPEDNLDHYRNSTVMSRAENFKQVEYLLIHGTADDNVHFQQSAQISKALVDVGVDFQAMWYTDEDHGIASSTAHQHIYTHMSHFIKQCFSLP

For `N#C[C@@H]1C[C@H](F)CN1C(=O)CN1CC[C@@H](Nc2cccc3cccnc23)C1` [Example 169, (2S,4S)-4-fluoro-1-[2-[(3R)-3-(8-quinolylamino)pyrrolidin-1-yl]acetyl]pyrrolidine-2-carbonitrile], in assay [1] (setting [3]), the IC50 worked out at 35.4 nM.
Take `Cc1ccc2ncccc2c1NC1CCN(CC(=O)N2C[C@@H](F)C[C@H]2C#N)CC1` [Example 134, (2S,4S)-4-fluoro-1-(2-(4-((6-methylquinolin-5-yl)amino)piperidin-1-yl)acetyl)pyrrolidine-2-carbonitrile]: the IC50 in assay [2] (25° C., H-Gly-Pro-AMC substrate) turned out to be 8010 nM; in assay [1] (setting [4]), 343 nM.
Consider `N#C[C@@H]1C[C@@H]2C[C@@H]2N1C(=O)CN1CC[C@H](Nc2cncc3ccoc23)C1` [Example 26, (1S,3S,5S)-2-(2-((S)-3-(furo[3,2-c]pyridin-7-ylamino)pyrrolidin-1-yl)acetyl)-2-azabicyclo[3.1.0]hexane-3-carbonitrile], for which the inhibition at 1 µM in assay [2] was 0.4%; in assay [1] it was 93.7%.
Consider `Cc1ccc2c(C(=O)N[C@H]3CCN(CC(=O)N4CCC[C@H]4C#N)C3)coc2c1` [Example 53, N—((S)-1-(2-((S)-2-cyanopyrrolidin-1-yl)-2-oxoethyl)pyrrolidin-3-yl)-6-methylbenzofuran-3-carboxamide], for which, in assay [2], the inhibition at 1 µM came out at 1.3%. Also, the concentration for half-maximal inhibition (IC50) in assay [1] (setting [4]) came to 17.7 nM.
Regarding `N#C[C@@H]1CCCN1C(=O)CN1CC[C@H](NC(=O)c2cccc3ccoc23)C1` [Example 58, N—((S)-1-(2-((S)-2-cyanopyrrolidin-1-yl)-2-oxoethyl)pyrrolidin-3-yl)benzofuran-7-carboxamide], the “hDPP4 inhibition % at 1 μM” value in assay [2] is “No inhibition**”. In assay [1] (setting [4]), the IC50 is 62.5 nM.
Take `N#C[C@@H]1CCCN1C(=O)CN1CC[C@H](NC(=O)c2nccc3ccccc23)C1` [Example 35, N—((S)-1-(2-((S)-2-cyanopyrrolidin-1-yl)-2-oxoethyl)pyrrolidin-3-yl)isoquinoline-1-carboxamide]: the “hDPP4 inhibition % at 1 μM” value in assay [2] was “No inhibition**”. Moreover, in assay [1], the inhibition at 1 µM turned out to be 76.1%.
Take `COC(=O)C1Cc2ccc(O[C@H]3CCN(CC(=O)N4CCC[C@H]4C#N)C3)cc2O1` (stereo partly drawn) [Example 86, Methyl 6-(((S)-1-(2-((S)-2-cyanopyrrolidin-1-yl)-2-oxoethyl)pyrrolidin-3-yl)oxy)-2,3-dihydrobenzofuran-2-carboxylate]: the inhibition at 1 µM in assay [2] was found to be 6.8%; in assay [1] it was 70.7%.
Take `N#C[C@@H]1CCCN1C(=O)CN1CC[C@H](NC(=O)c2ccc3ccccc3n2)C1` [Example 33, N—((S)-1-(2-((S)-2-cyanopyrrolidin-1-yl)-2-oxoethyl)pyrrolidin-3-yl)quinoline-2-carboxamide]: the “hDPP4 inhibition % at 1 μM” value in assay [2] is “No inhibition**”. Further, the inhibition at 1 µM in assay [1] stood at 66.1%.
Consider `N#C[C@@H]1CCCN1C(=O)CN1CC[C@H](Oc2ccnc3c(F)c(F)ccc23)C1` [Example 85, (S)-1-(2-((S)-3-((7,8-difluoroquinolin-4-yl)oxy)pyrrolidin-1-yl)acetyl)pyrrolidine-2-carbonitrile], for which, in assay [2], the inhibition at 1 µM was 5.9%. Moreover, in assay [1] (setting [4]), the IC50 was 19.9 nM.
As to `N#C[C@@H]1CCCN1C(=O)CN1CC[C@H](NC(=O)c2ccnc3ccccc23)C1` [Example 30, N—((S)-1-(2-((S)-2-cyanopyrrolidin-1-yl)-2-oxoethyl)pyrrolidin-3-yl)quinoline-4-carboxamide], in assay [2], the “hDPP4 inhibition % at 1 μM” value is “No inhibition**”. In addition, in assay [1] (setting [4]), the IC50 stood at 145 nM.
In the case of `N#C[C@@H]1CCCN1C(=O)CN1CC[C@H](Oc2ccnc3cc(Cl)ccc23)C1` [Example 79, (S)-1-(2-((S)-3-((7-chloroquinolin-4-yl)oxy)pyrrolidin-1-yl)acetyl)pyrrolidine-2-carbonitrile], the inhibition at 1 µM in assay [2] came out at 4.6%. For the same compound, in assay [1] (setting [4]), the IC50 was 17.9 nM.
On to `N#C[C@@H]1C[C@H](F)CN1C(=O)CN1CCC(Nc2ccc3cnccc3c2)CC1` [Example 341, (2S,4S)-4-fluoro-1-[2-[4-(6-isoquinolylamino)-1-piperidyl]acetyl]pyrrolidine-2-carbonitrile], for which the IC50 in assay [2] (recombinant human DPP4) was above 10000 nM; in assay [1] (setting [3]), 22.7 nM.
Regarding `N#C[C@@H]1C[C@H](F)CN1C(=O)CN1CC[C@@H](Nc2ccc3cccnc3c2)C1` [Example 168, (2S,4S)-4-fluoro-1-[2-[(3R)-3-(7-quinolylamino)pyrrolidin-1-yl]acetyl]pyrrolidine-2-carbonitrile], the concentration for half-maximal inhibition (IC50) in assay [1] (setting [3]) is 11.5 nM.
For `CN(c1ccc2cccnc2c1)[C@@H]1CCN(CC(=O)N2CCC[C@H]2C#N)C1` [Example 141, (2S)-1-[2-[(3R)-3-[methyl(7-quinolyl)amino]pyrrolidin-1-yl]acetyl]pyrrolidine-2-carbonitrile], the 50% inhibitory concentration (IC50) in assay [1] (setting [4]) was found to be 34.1 nM.
Same read-out and setting: the value for `CN(c1ccnc2ccccc12)[C@H]1CCN(CC(=O)N2CCC[C@H]2C#N)C1` [Example 143, (2S)-1-[2-[(3S)-3-[methyl(4-quinolyl)amino]pyrrolidin-1-yl]acetyl]pyrrolidine-2-carbonitrile] was 55.4 nM; that for `CN(c1ccc2ccccc2n1)[C@@H]1CCN(CC(=O)N2CCC[C@H]2C#N)C1` [Example 137, (2S)-1-[2-[(3R)-3-[methyl(2-quinolyl)amino]pyrrolidin-1-yl]acetyl]pyrrolidine-2-carbonitrile] was 86.1 nM.
Regarding `N#C[C@@H]1CCCN1C(=O)CN1CC[C@@H](Nc2ccc3cccnc3c2)C1` [Example 163, (2S)-1-[2-[(3R)-3-(7-quinolylamino)pyrrolidin-1-yl]acetyl]pyrrolidine-2-carbonitrile], the half-maximal inhibitory concentration (IC50) in assay [1] (setting [3]) is 29 nM.
For `CN(c1cncc2ccccc12)[C@H]1CCN(CC(=O)N2CCC[C@H]2C#N)C1` [Example 147, (2S)-1-[2-[(3S)-3-[4-isoquinolyl(methyl)amino]pyrrolidin-1-yl]acetyl]pyrrolidine-2-carbonitrile], the IC50 in assay [1] (setting [4]) came out at 14.7 nM.
Consider `N#C[C@@H]1CCCN1C(=O)CN1CC[C@@H](Nc2cccc3cccnc23)C1` [Example 164, (2S)-1-[2-[(3R)-3-(8-quinolylamino)pyrrolidin-1-yl]acetyl]pyrrolidine-2-carbonitrile], for which the IC50 in assay [1] (setting [3]) worked out at 56.8 nM.
